Source: patent US12583861B2, “Derivatives of imidazo[4,5-d]pyridazine, their preparation and their therapeutic application” (SANOFI, priority 2021, dated 2026)
Read-outs that look alike come from different tables or passages of the source.

Assays:
human TLR7 = target: T1, human TLR7 (Homo sapiens, UniProt Q9NYK1); experiment: HEK-Blue hTLR7 reporter cell assay (SEAP, NF-kB/AP-1) for stimulation of human TLR7; format: cell-based; details: HEK-Blue hTLR7 cells, 24 h incubation, SEAP readout; read-out: TLR7_EC50
T1 construct: host or cells: HEK293 (HEK-Blue hTLR7)
T1 sequence (Q9NYK1 27-1049): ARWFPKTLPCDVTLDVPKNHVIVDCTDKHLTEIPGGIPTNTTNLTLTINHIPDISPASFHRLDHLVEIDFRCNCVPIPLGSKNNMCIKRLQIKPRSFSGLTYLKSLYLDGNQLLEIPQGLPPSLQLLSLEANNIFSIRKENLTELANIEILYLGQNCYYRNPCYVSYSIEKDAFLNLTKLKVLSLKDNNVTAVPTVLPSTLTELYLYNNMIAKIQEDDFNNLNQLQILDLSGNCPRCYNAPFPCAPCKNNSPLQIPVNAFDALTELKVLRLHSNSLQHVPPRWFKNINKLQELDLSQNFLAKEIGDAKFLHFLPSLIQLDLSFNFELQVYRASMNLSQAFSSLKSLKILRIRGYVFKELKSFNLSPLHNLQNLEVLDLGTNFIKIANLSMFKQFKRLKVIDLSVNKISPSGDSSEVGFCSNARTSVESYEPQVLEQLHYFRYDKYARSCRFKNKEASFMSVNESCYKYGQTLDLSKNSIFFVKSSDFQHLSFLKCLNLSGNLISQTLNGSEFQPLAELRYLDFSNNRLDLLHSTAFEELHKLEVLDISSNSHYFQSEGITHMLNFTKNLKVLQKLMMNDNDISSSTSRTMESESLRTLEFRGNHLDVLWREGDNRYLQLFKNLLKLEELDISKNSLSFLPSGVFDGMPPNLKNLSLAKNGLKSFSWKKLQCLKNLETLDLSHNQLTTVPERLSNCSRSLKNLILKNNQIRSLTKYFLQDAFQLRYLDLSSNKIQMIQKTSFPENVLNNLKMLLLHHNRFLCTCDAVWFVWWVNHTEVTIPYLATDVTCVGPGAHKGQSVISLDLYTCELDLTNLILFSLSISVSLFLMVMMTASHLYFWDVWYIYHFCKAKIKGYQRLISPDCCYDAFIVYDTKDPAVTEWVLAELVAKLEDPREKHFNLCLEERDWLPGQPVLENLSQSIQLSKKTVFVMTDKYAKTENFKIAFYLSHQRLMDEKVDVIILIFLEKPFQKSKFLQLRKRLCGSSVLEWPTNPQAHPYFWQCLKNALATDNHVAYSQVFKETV
Method in brief: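 HEK293 cells expressing hTLR7 with NF-κB/AP-1-driven SEAP reporter, seeded 3.10E4 cells/well, pre-incubated 18–24 h, then exposed to 3-fold compound dilutions (0.01–20 μM) for 24 h at 37 °C. Supernatant SEAP read with QUANTI-Blue; EC50 as concentration giving 50% activation.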

IL-6 = IL-6 cytokine activation in human PBMC (MSD assay); format: cell-based; details: read-out: IL6 EC50
Protocol: The other below tests involving measuring the in vitro activity of some compounds of the disclosure on cytokines IFN-α2a, IL-6, IL29 and TNF-α were carried out using human PBMC (PBMCs).
The activity described below, with respect to TLR7, TLR8, IFN-α2a, IL-6, IL29 and TNF-α, is given by the half maximal effective concentration (EC50), which corresponds to the concentration required to obtain a 50% of the activation. The lower the EC50, the less the concentration of the compound is required to produce 50% of maximum activation and the higher the potency.
In Vitro Assay to Determine IFN-α2a, IL-6, IL29 and TNF-α Cytokine Activation:
Peripheral blood mononuclear cells were isolated by Ficoll density gradient centrifugation from peripheral blood samples obtained from healthy donors (EFS). Isolated PBMCs are washed twice with PBS and resuspended in RPMI-1640 medium supplement with 10% fetal bovine serum (FBS) at 5.10^5 cells/well in a 96-well plate. The cells were then incubated with the compounds to test at various doses (20 μM to 4.8.10-6 μM final) for 24 h at 37° C., 5% CO2. After 24 h treatment, the plates are centrifuged and the supernatant were collected and assayed for cytokines IFN-α2a, IL-6, IL29 and TNF-α using the Meso Scale Discovery (MSD) assay platform according to the manufacturer's instructions. Briefly, 25 μL of cell culture supernatants were incubated for 1 h at Room Temperature (RT) in custom Multi-Spot 96-well plates prior coated with capture antibodies. After washing, SULFO-TAG® labeled detection antibodies were added to each of the wells and incubated for 1 h RT before adding a read buffer.

SMILES	EC50 (human TLR7) [nM]	EC50 (IL-6; Homo sapiens, PBMC, 24 h) [nM]	EC50 (IL-6; 24 h) [nM]	EC50 (IL-6; 24 h, 2,2,2-trifluoroacetate) [nM]
CCCCc1nc2c(N)nnc(OC(C)C)c2n1C[C@H]1CCC[C@@H](N)C1 (racemic) [Compound 23, 1-(((1S,3R)-3-aminocyclohexyl)methyl)-2-butyl-7-isopropoxy-1H-imidazo[4,5-d]pyridazin-4-amine (and enantiomer)]	172	204	–	–
CCCCc1nc2c(N)nnc(OC(C)C)c2n1Cc1ccc(OC)cc1 [Compound 1, 2-butyl-7-isopropoxy-1-(4-methoxybenzyl)-1H-imidazo[4,5-d]pyridazin-4-amine]	103	457	–	–
CCCCc1nc2c(N)nnc(NC(C)C)c2n1Cc1ccc(OC)cc1 [Compound 2, 2-butyl-N7-isopropyl-1-(4-methoxybenzyl)-1H-imidazo[4,5-d]pyridazin-4,7-diamine]	53	99	–	–
CCCCc1nc2c(N)nnc(SC(C)C)c2n1Cc1ccc(OC)cc1 [Compound 3, 2-butyl-7-(isopropylthio)-1-(4-methoxybenzyl)-1H-imidazo[4,5-d]pyridazin-4-amine]	566	1410	–	–
CCCCc1nc2c(N)nnc(OCCOC)c2n1Cc1ccc(OC)cc1 [Compound 4, 2-butyl-1-(4-methoxybenzyl)-7-(2-methoxyethoxy)-1H-imidazo[4,5-d]pyridazin-4-amine]	1260	1940	–	–
C=CCOc1nnc(N)c2nc(CCCC)n(Cc3ccc(OC)cc3)c12 [Compound 6, 7-(allyloxy)-2-butyl-1-(4-methoxybenzyl)-1H-imidazo[4,5-d]pyridazin-4-amine]	295	331	–	–
CCCCc1nc2c(N)nnc(OC3CCCC3)c2n1Cc1ccc(OC)cc1 [Compound 9, 2-butyl-7-(cyclopentyloxy)-1-(4-methoxybenzyl)-1H-imidazo[4,5-d]pyridazin-4-amine]	135	149	–	–
CCCCc1nc2c(N)nnc(N3CCCC3)c2n1Cc1ccc(OC)cc1 [Compound 10, 2-butyl-1-(4-methoxybenzyl)-7-(pyrrolidin-1-yl)-1H-imidazo[4,5-d]pyridazin-4-amine]	120	177	–	–
CCCCc1nc2c(N)nnc(-c3cc[nH]c3)c2n1Cc1ccc(OC)cc1 [Compound 14, 2-butyl-1-(4-methoxybenzyl)-7-(1H-pyrrol-3-yl)-1H-imidazo[4,5-d]pyridazin-4-amine]	219	106	–	–
C=C(C)c1nnc(N)c2nc(CCCC)n(Cc3ccc(OC)cc3)c12 [Compound 17, 2-butyl-1-(4-methoxybenzyl)-7-(prop-1-en-2-yl)-1H-imidazo[4,5-d]pyridazin-4-amine]	155	186	–	–
CCCCc1nc2c(N)nnc(C(C)C)c2n1Cc1ccc(OC)cc1 [Compound 18, 2-butyl-7-isopropyl-1-(4-methoxybenzyl)-1H-imidazo[4,5-d]pyridazin-4-amine]	355	548	–	–
CCCCc1nc2c(N)nnc(OC(C)C)c2n1Cc1ccc(CN)cc1 [Compound 21, 1-(4-(aminomethyl)benzyl)-2-butyl-7-isopropoxy-1H-imidazo[4,5-d]pyridazin-4-amine]	33	–	8	–
CCCCc1nc2c(N)nnc(OC(C)C)c2n1Cc1ccc(CN)cc1 [Compound 22, 1-(4-(aminomethyl)benzyl)-2-butyl-7-isopropoxy-1H-imidazo[4,5-d]pyridazin-4-amine 2,2,2-trifluoroacetate]	30	–	–	165
CCCCc1nc2c(N)nnc(OC(C)C)c2n1Cc1cccc(CN)c1 [Compound 33, 1-(3-(aminomethyl)benzyl)-2-butyl-7-isopropoxy-1H-imidazo[4,5-d]pyridazin-4-amine 2,2,2-trifluoroacetate]	392	52	–	–
CCCCc1nc2c(N)nnc(OC(C)C)c2n1Cc1ccc(C=O)cc1 [Compound 34, 4-((4-amino-2-butyl-7-isopropoxy-1H-imidazo[4,5-d]pyridazin-1-yl)methyl)benzaldehyde]	116	75	–	–
CCCCc1nc2c(N)nnc(OC(C)C)c2n1Cc1ccc(CO)cc1 [Compound 35, (4-((4-amino-2-butyl-7-isopropoxy-1H-imidazo[4,5-d]pyridazin-1-yl)methyl)phenyl)methanol]	106	40	–	–
CCCCc1nc2c(N)nnc(N(C)C)c2n1C [Compound 41, 2-butyl-N7,N7,1-trimethyl-1H-imidazo[4,5-d]pyridazine-4,7-diamine]	3070	1280	–	–
CCCCc1nc2c(N)nnc(OCC)c2n1Cc1ccc(OC)cc1 [Compound 48, 2-butyl-7-ethoxy-1-(4-methoxybenzyl)-1H-imidazo[4,5-d]pyridazin-4-amine]	160	368	–	–
CCCCc1nc2c(N)nnc(NCCOC)c2n1Cc1ccc(OC)cc1 [Compound 49, 2-butyl-1-(4-methoxybenzyl)-N7-(2-methoxyethyl)-1H-imidazo[4,5-d]pyridazine-4,7-diamine]	353	1730	–	–
CCCCc1nc2c(N)nnc(N(C)C)c2n1Cc1ccc(OC)cc1 [Compound 71, 2-butyl-1-(4-methoxybenzyl)-N7,N7-dimethyl-1H-imidazo[4,5-d]pyridazine-4,7-diamine]	291	571	–	–
CCCCc1nc2c(N)nnc(OC(C)C)c2n1Cc1ccccn1 [Compound 75, 2-butyl-7-isopropoxy-1-(pyridin-2-ylmethyl)-1H-imidazo[4,5-d]pyridazin-4-amine]	179	181	–	–
CCCCc1nc2c(N)nnc(N3CCC(c4ccccc4)C3)c2n1C (centres unmarked) [Compound 89, 2-butyl-1-methyl-7-(3-phenylpyrrolidin-1-yl)-1H-imidazo[4,5-d]pyridazin-4-amine]	1200	466	–	–
